This data set can be described thus: photoluminescence quantum yield (fraction); solvent given as SMILES.
Setting [1] is: in c1ccc2c(c1)c1ccccc1n2-c1ccc(-c2ccc(-n3c4ccccc4c4ccccc43)cc2)cc1.

`CC1(C)c2ccccc2-c2cc3c4cc(-n5c6ccccc6c6ccccc65)ccc4n(-c4ccc(-c5nc(-c6ccccc6)nc(-c6ccccc6)n5)cc4)c3cc21`: under “in O=P(c1ccccc1)(c1ccccc1)c1ccccc1Oc1ccccc1P(=O)(c1ccccc1)c1ccccc1”, the photoluminescence quantum yield was found to be 0.84.
For `COc1cc2c(cc1-c1ccncc1)Cc1c3c(c4c(c1-2)-c1cc(OC)c(-c2ccncc2)cc1C4)C(=O)N(CCC(C)C)C3=O`, the photoluminescence quantum yield (in C1CCOC1) turned out to be 0.42.
For `Cc1c(C)c(B(c2c(C)c(C)c(N3c4ccccc4Oc4ccccc43)c(C)c2C)c2c(C)c(C)c(N3c4ccccc4Oc4ccccc43)c(C)c2C)c(C)c(C)c1C#N`, where the note is “in c1ccc([Si](c2ccccc2)(c2ccc(-n3c4ccccc4c4ccccc43)cc2)c2ccc(-n3c4ccccc4c4ccccc43)cc2)cc1”, the photoluminescence quantum yield was found to be 0.75.
For the compound `CCCCCOc1cc2oc(=O)c3c4ccc(N(c5ccc(C)cc5)c5ccc(C)cc5)cc4c4ccc5cccc6c(c1)c2c3c4c56`, under “in C1CCOC1”, the photoluminescence quantum yield is 0.53.
Regarding `CCCCCCN1C(=O)C(c2ccc(-n3c4ccccc4c4ccccc43)cc2)=C(c2ccc(-n3c4ccccc4c4ccccc43)cc2)C1=O`, the photoluminescence quantum yield is 0.42 (in ClC(Cl)Cl) and 0.66 under setting [1].
For the compound `CN(C)c1ccc(/C=C/c2nc3ccc(N(C)C)cc3oc2=O)cc1`, the photoluminescence quantum yield amounted to 0.57 (in C1CCCCC1); 0.59 (in C1COCCO1); 0.21 (in CC#N); 0.36 (in CC(C)=O); 0.024 (in CC(O)CO); 0.56 (in CCCCCCC). The compound also showed a photoluminescence quantum yield (in CCO) of 0.016; a photoluminescence quantum yield (in CCOC(C)=O) of 0.52; a photoluminescence quantum yield (in CN(C)C=O) of 0.22; a photoluminescence quantum yield (in CS(C)=O) of 0.04; a photoluminescence quantum yield (in Cc1ccccc1) of 0.57; a photoluminescence quantum yield (in ClC(Cl)Cl) of 0.52. For the same compound, the photoluminescence quantum yield came to 0.55 (in ClCCl) and 0.019 (in OCC(O)CO).
Turning to `O=c1c2ccccc2n(-c2ccc(-c3ccc(-n4c5ccccc5c(=O)c5ccccc54)cc3)cc2)c2ccccc12`, the photoluminescence quantum yield (in ClCCl) turned out to be 0.31.
Turning to `CC(C)[Si](C#Cc1c2cc3ccccc3cc2c(C#C[Si](C(C)C)(C(C)C)C(C)C)c2nc3c(nc12)Cc1ccccc1-3)(C(C)C)C(C)C`, under “in CCCCCC”, the photoluminescence quantum yield amounted to 0.15.
In turn, `Cc1ccc(-c2c3nc(c(-c4ccc(C)cc4)c4ccc([nH]4)c(-c4ccc(OC(=O)C(C)c5ccc(-c6ccccc6)c(F)c5)cc4)c4nc(c(-c5ccc(C)cc5)c5ccc2[nH]5)C=C4)C=C3)cc1` (stereo unspecified) showed a photoluminescence quantum yield (in ClCCl) of 0.131.
`Cc1nnc(-c2cc(-n3c4ccccc4c4ccccc43)c(-n3c4ccccc4c4ccccc43)cc2-c2nnc(C)o2)o1` gave a photoluminescence quantum yield (in Cc1ccccc1) of 0.287.
The compound `Cc1ccc(-c2cnc3ccc4ccccc4n23)cc1` displayed a photoluminescence quantum yield (in ClCCl) of 0.42.
For the compound `Cc1nc2c(c[n+]1C)CN1C(=O)N([C@H]3O[C@@H](CO)[C@H](O)[C@@H]3O)C=CC1=N2`, the photoluminescence quantum yield was determined as 0.99 (in CC#N); 0.94 (in CC(C)=O); 0.12 (in CCCCO); 0.11 (in CCCO); 0.14 (in CCO); 0.14 (in CO). This compound gave a photoluminescence quantum yield (in O) of 0.38, a photoluminescence quantum yield (in [2H]OC) of 0.15, a photoluminescence quantum yield (in [2H]OCC) of 0.14 and a photoluminescence quantum yield (in [2H]O[2H]) of 0.42.
For the setting “in CCO”, `COC(=O)CNC(=O)CCNc1cccc2ccccc12` gave a photoluminescence quantum yield of 0.55.
For `C=C[C@]12CC[C@H](CC1)N=N2`, the photoluminescence quantum yield (in CC#N) turned out to be 0.0009.
Take `O=c1oc2c(ccc3cc(O)ccc32)nc1-c1ccccc1`: the photoluminescence quantum yield (in c1ccccc1) was determined as 0.604.
`CN(c1ccccc1)c1ccc(-c2ccc(-c3ccc(N(C)c4ccccc4)cc3)c3nc(-c4ccccc4)c(-c4ccccc4)nc23)cc1`: the photoluminescence quantum yield (in ClC(Cl)Cl) is 0.01.
Regarding `Cc1cc2c3ccccc3[nH]c2c2[nH]c3ccccc3c12`, the photoluminescence quantum yield (in ClCCl) turned out to be 0.075.
Where the note is “in CCCCCC”, `COC(=O)c1c(C(=O)OC)c2ccc(-c3ccccc3)nn2c1C` returned a photoluminescence quantum yield of 0.685.
Regarding `COc1ccc(/C=C/c2ccc(-c3ccc(C)cn3)nc2)cc1`, under “in CC#N”, the photoluminescence quantum yield was determined as 0.28.
As to `CN1/C(=C/C=C(/C=C/C2=[N+](C)c3ccccc3C2(C)C)c2ccccc2)C(C)(C)c2ccccc21`, the photoluminescence quantum yield is 0.11 (in CCO), 0.09 (in CO) and 0.29 (in CS(C)=O).
For the compound `COC(=O)C(Cc1ccc2oc(-c3ccc(N(C)C)cc3)nc2c1)NC(=O)OC(C)(C)C` (stereo unspecified), the photoluminescence quantum yield is, setting by setting: (in C1CCCCC1) 1; (in C1CCOC1) 0.88; (in C1COCCO1) 1; (in CC1CCCO1) 1; (in CC1COC(=O)O1) 1; (in CC#N) 0.95. Further, the photoluminescence quantum yield (in CC(C)=O) is 1; the photoluminescence quantum yield (in CC(C)CC(C)(C)C) was determined as 0.95; the photoluminescence quantum yield (in CC(C)CO) came out at 1; the photoluminescence quantum yield (in CC(C)O) was determined as 1; the photoluminescence quantum yield (in CC(C)OC(C)C) amounted to 1; the photoluminescence quantum yield (in CC(O)CO) was 0.99. Also, the photoluminescence quantum yield is 0.92 (in CCC(C)CC); 0.95 (in CCCCC); 0.93 (in CCCCCC); 1 (in CCCCCCCCC); 0.93 (in CCCCCCCCCC); 1 (in CCCCCCCO). Also, the photoluminescence quantum yield was 1 (in CCCCCCO); 1 (in CCCCCO); 0.99 (in CCCCO); 0.98 (in CCO); 1 (in CCOC(C)=O); 0.99 (in CCOCC). For the same compound, the photoluminescence quantum yield came to 0.92 (in CN(C)C=O); 0.81 (in CO); 0.7 (in COCCOC); 1 (in CS(C)=O); 0.9 (in Cc1ccccc1); 0.99 (in Cc1ccccc1C). Besides, the photoluminescence quantum yield (in ClC(Cl)Cl) is 0.68; the photoluminescence quantum yield (in ClCCl) turned out to be 1; the photoluminescence quantum yield (in NC=O) stood at 0.71; the photoluminescence quantum yield (in OC1CCCCC1) amounted to 0.91; the photoluminescence quantum yield (in OCCO) came to 0.76; the photoluminescence quantum yield (in c1ccccc1) stood at 0.97.
As to `CC[N+]1(CC)CN2C(C)=CC(C)=C(C(=O)[O-])C2=N1`, the photoluminescence quantum yield is, setting by setting: (in CN(C)C=O) 0.105; (in O) 0.783.
For `Cc1cc(C)c2c(c1)c1cc(C)cc(C)c1n2-c1ccc2c(c1)B(c1c(C(C)C)cc(C(C)C)cc1C(C)C)c1cc(-n3c4c(C)cc(C)cc4c4cc(C)cc(C)c43)ccc1N2c1ccccc1`, the photoluminescence quantum yield (in c1cc(-c2cccc(-n3c4ccccc4c4ccccc43)c2)cc(-n2c3ccccc3c3ccccc32)c1) turned out to be 0.56.
`N#Cc1c(-n2c3ccccc3c3ccccc32)c(-n2c3ccccc3c3ccccc32)c(-n2c3ccccc3c3ccccc32)c(-n2c3ccc(-c4ccccc4)cc3c3cc(-c4ccccc4)ccc32)c1-n1c2ccccc2c2ccccc21` displayed a photoluminescence quantum yield (in Cc1ccccc1) of 0.85.
Compound `C(=C\c1ccc(-c2cccc3ccccc23)s1)/c1cccs1` showed a photoluminescence quantum yield (in ClCCl) of 0.25.
Under “in CCO”, `O=CC1=C(c2ccc(-c3cccs3)s2)CC1` gave a photoluminescence quantum yield of 0.32.
On to `Cc1cccc(C2=CC3=C(c4c(C)cc(C)cc4C)c4cc(-c5cccc(C)c5)c(-c5cccc(C)c5)n4[B-](F)(F)[N+]3=C2c2cccc(C)c2)c1`, for which the photoluminescence quantum yield is 0.41 (in C1CCCCC1); 0.33 (in C1CCOC1); 0.24 (in CC#N); 0.44 (in Cc1ccccc1); 0.3 (in ClCCl).
Consider `COc1cc(/C=C/c2ccccn2)c(OC)cc1C=O`, for which the photoluminescence quantum yield is 0.19 (in C1CCOC1); 0.24 (in CC#N); 0.21 (in CN(C)C=O); 0.16 (in Cc1ccccc1); 0.36 (in ClCCl).
As for `CC(C)(C)c1ccc(-c2c(-c3ccc(N(c4ccccc4)c4ccccc4)cc3)c(C#N)c(-c3ccc(N(c4ccccc4)c4ccccc4)cc3)c(-c3ccc(C(C)(C)C)cc3)c2-c2ccc(C(C)(C)C)cc2)cc1`, the photoluminescence quantum yield (in C1CCOC1) is 0.686.
For the compound `COc1ccc2c(c1)CCc1c(-c3ccccc3)c3n(c1-2)[B-](F)(F)[N+]1=C2C(=C(c4ccccc4)C1=N3)CCc1ccccc12`, under “in ClC(Cl)Cl”, the photoluminescence quantum yield was 0.32.
Consider `O=P1(c2ccccc2)c2ccc(N3c4ccccc4Sc4ccccc43)cc2-c2cc(N3c4ccccc4Sc4ccccc43)ccc21`, for which the photoluminescence quantum yield came to 0.59 (in Cc1ccccc1) and 0.53 under setting [1].
For the compound `N#Cc1cc(C#N)c(-c2cc(-n3c4ccccc4c4ccccc43)cc(-n3c4ccccc4c4ccccc43)c2)cc1-c1cc(-n2c3ccccc3c3ccccc32)cc(-n2c3ccccc3c3ccccc32)c1`, the photoluminescence quantum yield (in C1CCCCC1) worked out at 0.11.
Take `C1=[N+](c2ccccc2)[B-]2(Oc3c1ccc1c4c(ccc31)C=[N+](c1ccccc1)[B-]1(O4)c3ccccc3Oc3ccccc31)c1ccccc1Oc1ccccc12`: the photoluminescence quantum yield reads like this: (in Cc1ccccc1) 0.77; (in ClCCl) 0.81.
The compound `CC(C)(C)c1ccc2c(c1)c1cc(C(C)(C)C)ccc1n2-c1cccc2c1Oc1c(-c3nc(-c4ccccc4)nc(-c4ccccc4)n3)cccc1C2(C)C` registered a photoluminescence quantum yield (in Cc1ccccc1) of 0.06.
Compound `C[Si](C)(C)C#CC#Cc1ccc2c3cccc4cccc(c5cccc1c52)c43` came in with a photoluminescence quantum yield (in C1CCCCC1) of 0.51.
